Test results: ChEMBL document CHEMBL1201862, “PubChem BioAssay data set” (2004)
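Method: 48-hour compound exposure of cells in 96-well plates, five concentrations, linear interpolation of endpoints. GI50 = concentration required for 50% inhibition of growth.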 Activity calls are given as the source filed them. No stated cut-off is given here; in the data, active = GI50 up to about 1.1 µM and inactive = higher.

Key:
Assay in all cases: NCI anticancer screen, dose series, 48 h
A498 = system: A498
A549 = system: A549
LOX IMVI = system: LOX IMVI
Malme-3M = system: Malme-3M
NCI-H23 = system: NCI-H23
NCI-H522 = system: NCI-H522
RXF 393 = system: RXF 393
SF-539 = system: SF-539
SK-OV-3 = system: SK-OV-3
SN12C = system: SN12C
U-251 = system: U-251
UO-31 = system: UO-31
HT-29 = system: HT-29
OVCAR-5 = system: OVCAR-5
SF-295 = system: SF-295
SR = system: SR

Row | SMILES | GI50 (A498) | GI50 (A549) | GI50 (LOX IMVI) | GI50 (Malme-3M) | GI50 (NCI-H23) | GI50 (NCI-H522) | GI50 (RXF 393) | GI50 (SF-539) | GI50 (SK-OV-3) | GI50 (SN12C) | GI50 (U-251) | GI50 (UO-31) | GI50 (HT-29) | GI50 (OVCAR-5) | GI50 (SF-295) | GI50 (SR)
1 | N#CNCC(COCc1ccccc1)c1ccccc1 (stereo not drawn) | > 100 µM (inactive) | > 100 µM (inactive) | > 100 µM (inactive) | > 100 µM (inactive) | > 100 µM (inactive) | > 100 µM (inactive) | 99.1 µM (inactive) | > 100 µM (inactive) | > 100 µM (inactive) | > 100 µM (inactive) | > 100 µM (inactive) | 46.1 µM (inactive) | – | – | – | –
2 | CCOc1ccc(OCC)c([P+](c2ccccc2)(c2ccccc2)c2ccccc2)c1 | 0.785 µM (active) | 0.443 µM (active) | 0.35 µM (active) | 1.28 µM (inactive) | 0.254 µM (active) | – | 0.968 µM (active) | 0.685 µM (active) | – | 0.294 µM (active) | 0.204 µM (active) | – | 0.315 µM (active) | 0.407 µM (active) | 0.33 µM (active) | –
3 | C/C(=N\Nc1nnc(S)n1N)c1c(O)cc(C)oc1=O | > 100 µM (inactive) | > 100 µM (inactive) | > 100 µM (inactive) | > 100 µM (inactive) | > 100 µM (inactive) | > 100 µM (inactive) | – | > 100 µM (inactive) | > 100 µM (inactive) | > 100 µM (inactive) | > 100 µM (inactive) | > 100 µM (inactive) | > 100 µM (inactive) | – | > 100 µM (inactive) | > 100 µM (inactive)
4 | NC(=O)c1ncn(CCN2CCN(C(=O)NCCCCCCNC(=O)N3CCN(CCn4cnc(C(N)=O)c4N)CC3)CC2)c1N | – | > 100 µM (inactive) | > 100 µM (inactive) | > 100 µM (inactive) | > 100 µM (inactive) | – | > 100 µM (inactive) | > 100 µM (inactive) | > 100 µM (inactive) | > 100 µM (inactive) | > 100 µM (inactive) | > 100 µM (inactive) | > 100 µM (inactive) | > 100 µM (inactive) | > 100 µM (inactive) | > 100 µM (inactive)
5 | O=C(CC1(O)C(=O)Nc2c(Cl)cccc21)c1ccccc1 (stereo not drawn) | – | > 100 µM (inactive) | > 100 µM (inactive) | > 100 µM (inactive) | > 100 µM (inactive) | > 100 µM (inactive) | > 100 µM (inactive) | – | > 100 µM (inactive) | > 100 µM (inactive) | > 100 µM (inactive) | > 100 µM (inactive) | 84.7 µM (inactive) | > 100 µM (inactive) | > 100 µM (inactive) | –
6 | CCC1=C(C)/C(=C/c2[nH]c(CBr)c(CC)c2C)N=C1CBr | – | 18.4 µM (inactive) | > 100 µM (inactive) | 20.7 µM (inactive) | 14.6 µM (inactive) | 2.81 µM (inactive) | 12.1 µM (inactive) | 18.7 µM (inactive) | 19 µM (inactive) | 10 µM (inactive) | 11.3 µM (inactive) | 3.52 µM (inactive) | 12.5 µM (inactive) | > 10 µM (inactive) | 20.9 µM (inactive) | –
7 | CCOC(=O)C(Sc1ccccc1)c1c(OC)cc(=O)oc1/C=[N+](/[O-])c1ccc(N(C)C)cc1 (stereo not drawn) | 52.7 µM (inactive) | 28.4 µM (inactive) | 13.4 µM (inactive) | 17.2 µM (inactive) | 27.5 µM (inactive) | – | 16.2 µM (inactive) | 24.4 µM (inactive) | 75.7 µM (inactive) | 16.2 µM (inactive) | 24.7 µM (inactive) | 18.5 µM (inactive) | 16.3 µM (inactive) | 46 µM (inactive) | 24.4 µM (inactive) | –
8 | C[n+]1ccc2[nH]c3ccccc3c2c1 | 90.2 µM (inactive) | > 100 µM (inactive) | > 100 µM (inactive) | 35.6 µM (inactive) | > 100 µM (inactive) | > 100 µM (inactive) | > 100 µM (inactive) | > 100 µM (inactive) | > 100 µM (inactive) | > 100 µM (inactive) | > 100 µM (inactive) | > 100 µM (inactive) | > 100 µM (inactive) | > 58.3 µM (inactive) | > 100 µM (inactive) | –
9 | CC1=C(C(=O)Nc2ccccc2)C(c2ccccc2Cl)C(C(=O)Nc2ccccc2)=C(C)N1 | 27.8 µM (inactive) | 41.6 µM (inactive) | 18.6 µM (inactive) | 20 µM (inactive) | 26.4 µM (inactive) | 19.6 µM (inactive) | – | 20 µM (inactive) | 37.1 µM (inactive) | 18.9 µM (inactive) | 19.4 µM (inactive) | 35.6 µM (inactive) | 21 µM (inactive) | 24.3 µM (inactive) | 25.4 µM (inactive) | 25.8 µM (inactive)
10 | CCc1ccccc1NC(=O)C1=C(C)NC(C)=C(C(=O)Nc2ccccc2CC)C1c1ccccc1Cl | 18.7 µM (inactive) | > 100 µM (inactive) | > 100 µM (inactive) | > 100 µM (inactive) | > 100 µM (inactive) | 69.5 µM (inactive) | > 100 µM (inactive) | > 100 µM (inactive) | > 100 µM (inactive) | > 100 µM (inactive) | > 100 µM (inactive) | 35.5 µM (inactive) | > 100 µM (inactive) | > 100 µM (inactive) | > 100 µM (inactive) | –
11 | O=C(Nc1ccccc1-c1nn(CN2CCNCC2)c(=S)n(CN2CCNCC2)c1=O)C(F)(F)F | 18.2 µM (inactive) | 22.3 µM (inactive) | 18.8 µM (inactive) | 17.9 µM (inactive) | 17.9 µM (inactive) | – | 16.3 µM (inactive) | 18.4 µM (inactive) | 20 µM (inactive) | 19.4 µM (inactive) | 16.9 µM (inactive) | 13.6 µM (inactive) | 23.4 µM (inactive) | 22.9 µM (inactive) | 29 µM (inactive) | –
12 | Cc1nc2c(=O)n(C)c(=O)nc-2n(-c2ccc(Cl)cc2)c1C | > 100 µM (inactive) | > 100 µM (inactive) | – | > 100 µM (inactive) | > 100 µM (inactive) | > 100 µM (inactive) | – | > 100 µM (inactive) | > 100 µM (inactive) | > 100 µM (inactive) | > 100 µM (inactive) | 80.4 µM (inactive) | > 100 µM (inactive) | > 100 µM (inactive) | > 100 µM (inactive) | –
13 | CCOc1ccccc1NC(=O)CC1Sc2ccccc2NC1=O (stereo not drawn) | – | 82.2 µM (inactive) | > 100 µM (inactive) | 52.7 µM (inactive) | 61.2 µM (inactive) | 27.4 µM (inactive) | > 100 µM (inactive) | 62.7 µM (inactive) | > 100 µM (inactive) | > 100 µM (inactive) | 79.4 µM (inactive) | 61.1 µM (inactive) | 55.3 µM (inactive) | > 100 µM (inactive) | 43.6 µM (inactive) | 21 µM (inactive)
14 | COc1cccc(-n2c3nc(=O)n(C)c(=O)c-3nc3ccccc32)c1 | 34.5 µM (inactive) | 12.6 µM (inactive) | – | 14.3 µM (inactive) | 15.7 µM (inactive) | 29.3 µM (inactive) | – | 12.4 µM (inactive) | > 100 µM (inactive) | 13.7 µM (inactive) | 14.4 µM (inactive) | 49.8 µM (inactive) | 4.55 µM (inactive) | 19.2 µM (inactive) | 13.2 µM (inactive) | –
